Measurements: patent US20240260575A1, “AGRICULTURAL AND HORTICULTURAL FUNGICIDAL COMPOSITION” (Nippon Soda Co., Ltd., priority 2021, published 2024)

What was measured:
[1] = system: gray mold pathogen (Botrytis cinerea); test: Gray mold antimicrobial test (growth inhibition rate); type: cell-based; set-up: growth inhibition rate, component (II) alone: concentration or dose not given beside the values
Procedure: (Test Example) Gray Mold Antimicrobial Test (Growth Inhibition Rate)
Conidiospores of a gray mold pathogen (Botrytis cinerea) were added to and dispersed in a yeast extract sucrose medium, and a component (I) and a component (II) dissolved in dimethyl sulfoxide at predetermined concentrations were further added and mixed thereto, and the resulting solution was dispensed onto a 96-well microplate and cultivated in the dark at 20° C. for 3 to 5 days. After the cultivation, the turbidity at a wavelength of 405 nm was measured by a microplate reader and compared with that in the untreated case to determine the growth inhibition rate (%) for the gray mold pathogen. The test was duplicately carried out. The results are shown in Tables 3 to 7 together with expected values calculated as follows.
Expected values were calculated by using Colby's equation: E=M+N−MN/100. Here, E denotes an expected value (%) of a growth inhibition rate, M denotes a growth inhibition rate (%) in using a component (I) alone, and N denotes a growth inhibition rate (%) in using a component (II) alone.
If the actually measured growth inhibition rate (%) of a composition of a component (I) and a component (II) is higher than the expected value, E, the composition of a component (I) and a component (II) is said to have exerted synergistic effect.

[2] = system: cucumber powdery mildew pathogen (Sphaerotheca fuliginea); test: Cucumber powdery mildew control test; type: in vivo; set-up: scale not given here; settings: for control value: sprayed onto cucumber seedlings
Text: (Test Example) Cucumber Powdery Mildew Control Test 1) Preparation of Drug Solution for Test […] The other components (II) were each formulated into an aqueous solution or suspension having a predetermined concentration. 2) Test A mixed solution of a component (I) and a component (II) at a predetermined concentration was sprayed onto cucumber seedlings (variety: “Shimo-shirazu, creeping type”, cotyledon stage). After natural drying at room temperature, conidiospores of a cucumber powdery mildew pathogen (Sphaerotheca fuliginea) were inoculated by blushing off, and the seedlings were kept in a thermostatic room at 20° C. using a 12 hour light/dark cycle for 7 to 10 days. The states of lesion development on leaves were examined by comparing with that for the untreated case, and the control values were determined. The test was duplicately carried out. The results are shown in Tables 8 to 12 together with expected values calculated as follows. Expected values were calculated by using Colby's equation: […] Here, E denotes an expected value of a control value, M denotes a control value in using a component (I) alone, and N denotes a control value in using a component (II) alone. If the actually measured control value of a composition of a component (I) and a component (II) is higher than the expected value, E, the composition of a component (I) and a component (II) is said to have exerted synergistic effect.

[3] = Table 3, ppm: Ipflufenoquin 10, Cyflufenamid 10, Thiophamate-methyl 0.4, Iminoctadine acetate 0.08, Iminoctadine albesilate 0.08, Triflumizole 0.0032, Picarbutrazox 0.08, Prothioconazole 0.0032, Mefentrifluconazole 0.00064, Cymoxanil 10, Fludioxonil 0.016, Metyltetraprole 0.4, Florylpicoxamid 0.08, Fluxapyroxad 0.08, Fluopyram 0.4, Potassium phosphite 10, Fipronil 2, Chlorantraniliprole 0.016, Aba
[4] = Table 4, ppm: Ipflufenoquin 10, Cyflufenamid 2, Thiophamate-methyl 0.4, Iminoctadine acetate 0.08, Iminoctadine albesilate 0.4, Picarbutrazox 10, Prothioconazole 0.0032, Mefentrifluconazole 0.0006, Cymoxanil 10, Fludioxonil 0.016, Metyltetraprole 10, Fluxapyroxad 0.016, Fluopyram 0.4, Potassium phosphite 10, Fipronil 2, Chlorantraniliprole 0.016, Abamectin 0.016, Sulfoxaflor 10, Tebufenozide 0.016
[5] = Table 5, ppm: Ipflufenoquin 10, Cyflufenamid 10, Thiophamate-methyl 0.4, Iminoctadine albesilate 0.4, Picarbutrazox 0.0032, Mefentrifluconazole 0.0006, Cymoxanil 10, Captan 0.0032, Fludioxonil 0.016, Metyltetraprole 10, Florylpicoxamid 0.0001, Fluxapyroxad 0.016, Fluopyram 0.0032, Potassium phosphite 0.08, Fipronil 2, Chlorantraniliprole 0.016, Abamectin 0.4, Sulfoxaflor 0.4, Tebufenozide 10
[6] = Table 7, ppm: Ipflufenoquin 0.08, Cyflufenamid 0.08, Thiophamate-methyl 2, Iminoctadine acetate 0.0001, Iminoctadine albesilate 0.4, Triflumizole 0.4, Prothioconazole 0.0032, Mefentrifluconazole 0.08, Cymoxanil 0.08, Captan 0.08, Fludioxonil 0.08, Metyltetraprole 0.0032, Florylpicoxamid 0.0006, Fluxapyroxad 0.016, Fluopyram 0.0032, Potassium phosphite 0.016, Fipronil 2, Chlorantraniliprole 0.016
[7] = Table 8, ppm or dilution rate: Thiophanate-methyl 1.6, Triflumizole 25, Cyflufenamid 1.6, Iminoctadine acetate 0.25, Iminoctadine albesilate 1, Picarbutrazox 2000, Ipflufenoquin 1, Bacillus subtilis ×250, Pseudomonas rhodesiae ×2000, Sodium hydrogen carbonate 250, Potassium bicarbonate 250, Orange oil 4000, Linalool 4000, Thymol 100, Neem oil 2000, Prothioconazole 1.6, Mancozeb 63, Mineral oil 500
[8] = Table 9, ppm or dilution rate: Thiophanate-methyl 1.6, Triflumizole 25, Cyflufenamid 1.6, Iminoctadine acetate 0.25, Iminoctadine albesilate 1, Picarbutrazox 2000, Ipflufenoquin 1, Bacillus subtilis ×250, Pseudomonas rhodesiae ×2000, Sodium hydrogen carbonate 250, Potassium bicarbonate 250, Orange oil 1000, Linalool 4000, Thymol 100, Neem oil 2000, Prothioconazole 1.6, Mancozeb 63, Mineral oil 500
[9] = Table 10, ppm or dilution rate: Thiophanate-methyl 1.6, Triflumizole 25, Cyflufenamid 1.6, Iminoctadine acetate 0.25, Iminoctadine albesilate 1, Picarbutrazox 2000, Ipflufenoquin 1, Bacillus subtilis ×1000, Pseudomonas rhodesiae ×2000, Sodium hydrogen carbonate 250, Potassium bicarbonate 250, Orange oil 1000, Linalool 4000, Thymol 100, Neem oil 2000, Prothioconazole 1.6, Mancozeb 63, Mineral oil 5
[10] = Table 11, ppm or dilution rate: Thiophanate-methyl 1.6, Triflumizole 25, Cyflufenamid 1.6, Iminoctadine acetate 1, Iminoctadine albesilate 1, Picarbutrazox 2000, Ipflufenoquin 1, Bacillus subtilis ×1000, Pseudomonas rhodesiae ×2000, Sodium hydrogen carbonate 250, Potassium bicarbonate 250, Orange oil 1000, Linalool 4000, Thymol 100, Neem oil 2000, Prothioconazole 1.6, Mancozeb 63, Mineral oil 500
[11] = Table 12, ppm or dilution rate: Thiophanate-methyl 1.6, Triflumizole 25, Cyflufenamid 1.6, Iminoctadine acetate 0.25, Iminoctadine albesilate 1, Picarbutrazox 2000, Ipflufenoquin 1, Bacillus subtilis ×1000, Pseudomonas rhodesiae ×2000, Sodium hydrogen carbonate 1000, Potassium bicarbonate 250, Orange oil 1000, Linalool 4000, Thymol 400, Neem oil 2000, Prothioconazole 1.6, Mancozeb 63, Mineral oil
[12] = Table 6, ppm: Ipflufenoquin 10, Cyflufenamid 0.08, Thiophamate-methyl 2, Triflumizole 0.08, Picarbutrazox 0.0016, Prothioconazole 0.0006, Mefentrifluconazole 0.08, Cymoxanil 0.08, Captan 0.08, Fludioxonil 0.016, Metyltetraprole 10, Florylpicoxamid 0.0006, Fluxapyroxad 0.0032, Fluopyram 0.016, Potassium phosphite 0.016, Fipronil 10, Chlorantraniliprole 0.08, Abamectin 2, Sulfoxaflor 0.08, Tebufenoz

Row | SMILES | growth inhibition rate, component (II) alone [1, 3] [%] | growth inhibition rate, component (II) alone [1, 4] [%] | growth inhibition rate, component (II) alone [1, 5] [%] | growth inhibition rate, component (II) alone [1, 6] [%] | control value, component (II) alone [2, 7] | control value, component (II) alone [2, 8] | control value, component (II) alone [2, 9] | control value, component (II) alone [2, 10] | control value, component (II) alone [2, 11] | also measured
1 | CCCCCCCCCCCCc1ccc(S(=O)(=O)O)cc1.CCCCCCCCCCCCc1ccc(S(=O)(=O)O)cc1.CCCCCCCCCCCCc1ccc(S(=O)(=O)O)cc1.NC(N)=NCCCCCCCCNCCCCCCCCN=C(N)N [Iminoctadine albesilate] | 6 | 81 | 81 | 81 | 50 | 67 | 50 | 67 | 17 | 
2 | COc1ccc(F)cc1C(O)Cn1cc(/C(C)=N/OC(C)C)c(=O)n(C[C@@H](NC(=O)C(C)C)C(C)C)c1=O (stereo partly shown) [Compound 1] |  |  |  |  |  |  |  |  |  | growth inhibition rate ([1]; Table 3, Examination 2, Compound 1 (0.25 or 0.063 ppm) alone or mixed with component (II)): 52%; growth inhibition rate ([1]; Table 3, Examination 4, Compound 1 (0.25 or 0.063 ppm) alone or mixed with component (II)): 31%; control value ([2]; Table 8, Examination 1, Compound 1 0.4 ppm alone or mixed with component (II)): 78; control value ([2]; Table 8, Examination 2, Compound 1 0.4 ppm alone or mixed with component (II)): 64; control value ([2]; Table 8, Examination 3, Compound 1 0.4 ppm alone or mixed with component (II)): 67; control value ([2]; Table 8, Examination 4, Compound 1 0.4 ppm alone or mixed with component (II)): 83; control value ([2]; Table 8, Examination 5, Compound 1 0.4 ppm alone or mixed with component (II)): 75; control value ([2]; Table 8, Examination 6, Compound 1 0.4 ppm alone or mixed with component (II)): 67
3 | Cc1nc2c(F)c(F)ccc2cc1Oc1cccc(F)c1C(C)(C)O [Ipflufenoquin] | 4 | 4 | 4 | 0 | 27 | 27 | 27 | 27 | 27 | growth inhibition rate, component (II) alone [1, 12]: 4%
4 | COc1ccccc1C(O)Cn1cc(/C(C)=N/OC(C)C)c(=O)n(C[C@H](C)NC(=O)C(C)C)c1=O (stereo partly shown) [Compound 4] |  |  |  |  |  |  |  |  |  | growth inhibition rate ([1]; Table 6, Examination 1, Compound 4 (0.25 or 0.063 ppm) alone or mixed with component (II)): 56%; growth inhibition rate ([1]; Table 6, Examination 2, Compound 4 (0.25 or 0.063 ppm) alone or mixed with component (II)): 31%; growth inhibition rate ([1]; Table 6, Examination 3, Compound 4 (0.25 or 0.063 ppm) alone or mixed with component (II)): 6%; growth inhibition rate ([1]; Table 6, Examination 4, Compound 4 (0.25 or 0.063 ppm) alone or mixed with component (II)): 4%; growth inhibition rate ([1]; Table 6, Examination 5, Compound 4 (0.25 or 0.063 ppm) alone or mixed with component (II)): 4%; growth inhibition rate ([1]; Table 6, Examination 6, Compound 4 (0.25 or 0.063 ppm) alone or mixed with component (II)): 3%; control value ([2]; Table 11, Examination 1, Compound 4 0.4 ppm alone or mixed with component (II)): 78; control value ([2]; Table 11, Examination 2, Compound 4 0.4 ppm alone or mixed with component (II)): 64; control value ([2]; Table 11, Examination 3, Compound 4 0.4 ppm alone or mixed with component (II)): 63; control value ([2]; Table 11, Examination 4, Compound 4 0.4 ppm alone or mixed with component (II)): 59; control value ([2]; Table 11, Examination 5, Compound 4 0.4 ppm alone or mixed with component (II)): 59; control value ([2]; Table 11, Examination 6, Compound 4 0.4 ppm alone or mixed with component (II)): 67
5 | Cn1nnnc1/C(=N\OCc1cccc(NC(=O)OC(C)(C)C)n1)c1ccccc1 [Picarbutrazox] | 0 | 12 | 1 |  | 50 | 50 | 50 | 50 | 50 | growth inhibition rate, component (II) alone [1, 12]: 12%
6 | COc1ccc(F)cc1C(O)Cn1cc(/C(C)=N/OC(C)C)c(=O)n(C[C@@H](NC(=O)C(C)(C)C)C(C)C)c1=O (stereo partly shown) [Compound 2] |  |  |  |  |  |  |  |  |  | growth inhibition rate ([1]; Table 4, Examination 1, Compound 2 (0.25 or 0.063 ppm) alone or mixed with component (II)): 69%; growth inhibition rate ([1]; Table 4, Examination 2, Compound 2 (0.25 or 0.063 ppm) alone or mixed with component (II)): 53%; growth inhibition rate ([1]; Table 4, Examination 3, Compound 2 (0.25 or 0.063 ppm) alone or mixed with component (II)): 46%; growth inhibition rate ([1]; Table 4, Examination 4, Compound 2 (0.25 or 0.063 ppm) alone or mixed with component (II)): 41%; growth inhibition rate ([1]; Table 4, Examination 5, Compound 2 (0.25 or 0.063 ppm) alone or mixed with component (II)): 35%; control value ([2]; Table 9, Examination 1, Compound 2 0.4 ppm alone or mixed with component (II)): 67; control value ([2]; Table 9, Examination 2, Compound 2 0.4 ppm alone or mixed with component (II)): 71; control value ([2]; Table 9, Examination 3, Compound 2 0.4 ppm alone or mixed with component (II)): 67; control value ([2]; Table 9, Examination 4, Compound 2 0.4 ppm alone or mixed with component (II)): 67; control value ([2]; Table 9, Examination 5, Compound 2 0.4 ppm alone or mixed with component (II)): 59; control value ([2]; Table 9, Examination 6, Compound 2 0.4 ppm alone or mixed with component (II)): 67
7 | CC(=O)O.CC(=O)O.CC(=O)O.NC(N)=NCCCCCCCCNCCCCCCCCN=C(N)N [Iminoctadine acetate] | 25 | 56 |  | 0 | 0 | 50 | 0 | 50 | 17 | 
